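1) Cells in 96-well plates. 2) Compound, 48 h, 5 concentrations. 3) Linear interpolation between surrounding doses. 4) Unreached endpoint = highest concentration. Here, GI50 denotes the concentration required for 50% inhibition of growth. TGI: concentration producing complete growth inhibition.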
Experiments:
Assay in all cases: DTP human tumour cell line panel, 48 h
NCI-H226 lung = tested on: NCI-H226 lung
HCC-2998 colon = tested on: HCC-2998 colon
K-562 leukemia = tested on: K-562 leukemia
SK-MEL-28 melanoma = tested on: SK-MEL-28 melanoma
IGROV1 ovarian = tested on: IGROV1 ovarian
CAKI-1 renal = tested on: CAKI-1 renal
HOP-62 NSCLC = tested on: HOP-62 NSCLC
OVCAR-4 ovarian = tested on: OVCAR-4 ovarian
HL-60(TB) leukemia = tested on: HL-60(TB) leukemia
MDA-MB-231 breast = tested on: MDA-MB-231 breast
UO-31 renal = tested on: UO-31 renal
NCI/ADR-RES ovarian = tested on: NCI/ADR-RES ovarian
OVCAR-8 ovarian = tested on: OVCAR-8 ovarian
ACHN renal = tested on: ACHN renal
UACC-257 melanoma = tested on: UACC-257 melanoma
NCI-H23 lung = tested on: NCI-H23 lung
MOLT-4 leukemia = tested on: MOLT-4 leukemia
TK-10 renal = tested on: TK-10 renal
SK-MEL-5 melanoma = tested on: SK-MEL-5 melanoma
SN12C renal = tested on: SN12C renal
HOP-92 NSCLC = tested on: HOP-92 NSCLC
SNB-19 CNS = tested on: SNB-19 CNS
RPMI-8226 leukemia = tested on: RPMI-8226 leukemia
CCRF-CEM leukemia = tested on: CCRF-CEM leukemia
SNB-75 CNS = tested on: SNB-75 CNS
OVCAR-3 ovarian = tested on: OVCAR-3 ovarian
M14 melanoma = tested on: M14 melanoma
A498 renal = tested on: A498 renal
U251 CNS = tested on: U251 CNS
SK-MEL-2 melanoma = tested on: SK-MEL-2 melanoma
RXF 393 renal = tested on: RXF 393 renal
MALME-3M melanoma = tested on: MALME-3M melanoma
MDA-MB-435 = tested on: MDA-MB-435
T-47D breast = tested on: T-47D breast
SF-539 CNS = tested on: SF-539 CNS
DU-145 prostate = tested on: DU-145 prostate
NCI-H522 lung = tested on: NCI-H522 lung
LOX IMVI melanoma = tested on: LOX IMVI melanoma
SF-268 CNS = tested on: SF-268 CNS
HS 578T breast = tested on: HS 578T breast
BT-549 breast = tested on: BT-549 breast
SF-295 CNS = tested on: SF-295 CNS
PC-3 prostate = tested on: PC-3 prostate
MCF7 breast = tested on: MCF7 breast
HCT-15 colon = tested on: HCT-15 colon
NCI-H460 lung = tested on: NCI-H460 lung
HT29 colon = tested on: HT29 colon
OVCAR-5 ovarian = tested on: OVCAR-5 ovarian
KM12 colon = tested on: KM12 colon
COLO 205 colon = tested on: COLO 205 colon
SR leukemia = tested on: SR leukemia
EKVX NSCLC = tested on: EKVX NSCLC
A549 NSCLC = tested on: A549 NSCLC
SW-620 colon = tested on: SW-620 colon
SK-OV-3 ovarian = tested on: SK-OV-3 ovarian
786-0 renal = tested on: 786-0 renal
UACC-62 melanoma = tested on: UACC-62 melanoma
HCT-116 colon = tested on: HCT-116 colon

CC(=O)ON1CCCC(P(=O)(OCOC(=O)C(C)(C)C)OCOC(=O)C(C)(C)C)C1=O (stereo not given)
GI50 (NCI-H226 lung): 0.949 µM
TGI (NCI-H226 lung): 7.2 µM
GI50 (HCC-2998 colon): 0.803 µM
TGI (HCC-2998 colon): 3.5 µM
GI50 (K-562 leukemia): 0.303 µM
TGI (K-562 leukemia): > 87.2 µM
GI50 (SK-MEL-28 melanoma): 0.483 µM
TGI (SK-MEL-28 melanoma): 1.42 µM
GI50 (IGROV1 ovarian): 0.374 µM
TGI (IGROV1 ovarian): 1.84 µM
GI50 (CAKI-1 renal): 0.712 µM
TGI (CAKI-1 renal): 20.4 µM
GI50 (HOP-62 NSCLC): 0.923 µM
TGI (HOP-62 NSCLC): 7.53 µM
GI50 (OVCAR-4 ovarian): 1.19 µM
TGI (OVCAR-4 ovarian): 13.5 µM
GI50 (HL-60(TB) leukemia): 0.653 µM
TGI (HL-60(TB) leukemia): 2.87 µM
GI50 (MDA-MB-231 breast): 0.446 µM
TGI (MDA-MB-231 breast): 5.04 µM
GI50 (UO-31 renal): 0.337 µM
TGI (UO-31 renal): 2.68 µM
GI50 (NCI/ADR-RES ovarian): 0.531 µM
TGI (NCI/ADR-RES ovarian): 4.21 µM
GI50 (OVCAR-8 ovarian): 0.324 µM
GI50 (ACHN renal): 0.596 µM
TGI (ACHN renal): 13.5 µM
GI50 (UACC-257 melanoma): 2.41 µM
TGI (UACC-257 melanoma): 19.5 µM
GI50 (NCI-H23 lung): 0.91 µM
TGI (NCI-H23 lung): 4.25 µM
GI50 (MOLT-4 leukemia): 0.511 µM
TGI (MOLT-4 leukemia): 3.65 µM
GI50 (TK-10 renal): 0.977 µM
TGI (TK-10 renal): 6.89 µM
GI50 (SK-MEL-5 melanoma): 0.773 µM
TGI (SK-MEL-5 melanoma): 3.04 µM
GI50 (SN12C renal): 0.314 µM
TGI (SN12C renal): 2.38 µM
GI50 (HOP-92 NSCLC): 0.187 µM
TGI (HOP-92 NSCLC): 1.82 µM
GI50 (SNB-19 CNS): 0.583 µM
TGI (SNB-19 CNS): 4.74 µM
GI50 (RPMI-8226 leukemia): 0.407 µM
TGI (RPMI-8226 leukemia): 1.89 µM
GI50 (CCRF-CEM leukemia): 0.125 µM
TGI (CCRF-CEM leukemia): 7.81 µM
GI50 (SNB-75 CNS): 3.31 µM
TGI (SNB-75 CNS): 18.6 µM
GI50 (OVCAR-3 ovarian): 0.775 µM
TGI (OVCAR-3 ovarian): 4.49 µM
GI50 (M14 melanoma): 1.04 µM
TGI (M14 melanoma): 6.96 µM
GI50 (A498 renal): 0.314 µM
TGI (A498 renal): 2.01 µM
GI50 (U251 CNS): 0.458 µM
TGI (U251 CNS): 5.58 µM
GI50 (SK-MEL-2 melanoma): 1.58 µM
TGI (SK-MEL-2 melanoma): 6.91 µM
GI50 (RXF 393 renal): 0.308 µM
TGI (RXF 393 renal): 1.19 µM
GI50 (MALME-3M melanoma): 0.453 µM
TGI (MALME-3M melanoma): 6.63 µM
GI50 (MDA-MB-435): 2.02 µM
TGI (MDA-MB-435): 15 µM
GI50 (T-47D breast): 0.435 µM
TGI (T-47D breast): 7.5 µM
GI50 (SF-539 CNS): 1.11 µM
TGI (SF-539 CNS): 5.8 µM
GI50 (DU-145 prostate): 1.47 µM
TGI (DU-145 prostate): 17.4 µM
GI50 (NCI-H522 lung): 0.506 µM
TGI (NCI-H522 lung): 5.63 µM
GI50 (LOX IMVI melanoma): 0.827 µM
TGI (LOX IMVI melanoma): 15.3 µM
GI50 (SF-268 CNS): 0.746 µM
TGI (SF-268 CNS): 6.25 µM
GI50 (HS 578T breast): 0.603 µM
TGI (HS 578T breast): 4.4 µM
GI50 (BT-549 breast): 0.559 µM
TGI (BT-549 breast): 5.1 µM
GI50 (SF-295 CNS): 2.37 µM
TGI (SF-295 CNS): 29 µM
GI50 (PC-3 prostate): 1.23 µM
TGI (PC-3 prostate): 17.4 µM
GI50 (MCF7 breast): 0.4 µM
TGI (MCF7 breast): 2 µM
GI50 (HCT-15 colon): 0.534 µM
TGI (HCT-15 colon): 6.71 µM
GI50 (NCI-H460 lung): 0.959 µM
TGI (NCI-H460 lung): 4.71 µM
GI50 (HT29 colon): 0.305 µM
TGI (HT29 colon): 3.68 µM
GI50 (OVCAR-5 ovarian): 1.94 µM
TGI (OVCAR-5 ovarian): 20.3 µM
GI50 (KM12 colon): 0.51 µM
TGI (KM12 colon): 2.54 µM
GI50 (COLO 205 colon): 0.925 µM
TGI (COLO 205 colon): 5.71 µM
GI50 (SR leukemia): 0.309 µM
TGI (SR leukemia): 2.34 µM
GI50 (EKVX NSCLC): 0.94 µM
TGI (EKVX NSCLC): 11.1 µM
GI50 (A549 NSCLC): 0.514 µM
TGI (A549 NSCLC): 18.7 µM
GI50 (SW-620 colon): 1.26 µM
TGI (SW-620 colon): 20.8 µM
GI50 (SK-OV-3 ovarian): 0.923 µM
TGI (SK-OV-3 ovarian): 13.3 µM
GI50 (786-0 renal): 0.331 µM
TGI (786-0 renal): > 23.4 µM
GI50 (UACC-62 melanoma): 0.405 µM
TGI (UACC-62 melanoma): 1.74 µM
GI50 (HCT-116 colon): 0.249 µM
TGI (HCT-116 colon): 4.88 µM

Source: PubChem BioAssay (NCI)
